According to patent US6492380B1, “Method of inhibiting neurotrophin-receptor binding” (Queen's University at Kingston, priority 1999, dated 2002):

Experiments:
[1] = test system: T1, PC12 cells expressing TrkA and p75^NTR; test: 125I-NGF receptor binding inhibition, PC12 cells; parameters: species or system rat; conditions: compound 50 μM; 125I-NGF 1 nM; 2 h at 4° C.; value is mean of the three replicates
T1 construct: host or cells: PC12 (rat pheochromocytoma)
Protocol: (§1) The radio-iodination and receptor binding of NGF (Sutter et al., 1979) was performed with modifications (Ross et al., 1997) as follows: Evaluation of the ability of NCP compounds to inhibit TrkA and p75^NTR binding was determined by the binding of ^125I-NGF to PC12 cells (rat pheochromocytoma cells expressing TrkA and p75^NTR obtained from ATCC) and PC12^nnr5 (rat pheocliromocytoma cells expressing p75^NTR only; obtained from Dr. L. Greene, Columbia University, NY). The p75^NTR is in a low affinity state and a high affinity state, respectively, in these cell types (Ross et al., 1998). PC12 and PC12^nnr5 cells were grown in RPMI (Sigma) with 10% heat inactivated donor horse serum and 5% fetal calf serum. Cells were harvested by replacing the medium with calcium, magnesium-free balanced salt solution (Gey's solution) and incubating at 37° C. for 15 minutes. Cells were pelleted by centrifugation and suspended in HKR buffer (10 mM Hepes [pH 7.35] containing 125 mM NaCl, 4.8 mM KCl, 1.3 mM CaCl2, 1.2 mM MgSO4, 1.2 mM KH2PO4, 1 g/L glucose and 1 g/L BSA) at a cell concentration of 2×10^6/mL and kept at 4° C. Triplicate tubes were set up for total binding, non-specific binding and binding in the presence of candidate competitor molecule (i.e., a tube for each data point). Each tube contained ^125I-NGF (at 1 nM), 400,000 cells (for a final cell concentration of 10^6/mL) and NGF (50 nM, to define non-specific binding), as required. The tubes were incubated for 2 h at 4° C. and specific binding evaluated by measuring specifically bound DPM (Ross et al., 1997). Data were analysed and the results expressed as receptor binding observed in the presence of competitor as a percentage of receptor binding in the absence of a competitor.

[2] = test system: T2, PC12^nnr5 cells expressing p75^NTR only; test: 125I-NGF receptor binding inhibition, PC12^nnr5 cells; parameters: species or system rat; conditions: compound 50 μM; 125I-NGF 1 nM; 2 h at 4° C.; value is mean of the three replicates
T2 construct: PC12^nnr5 (rat pheocliromocytoma cells expressing p75^NTR only; obtained from Dr. L. Greene, Columbia University, NY); host or cells: PC12nnr5 (rat pheochromocytoma subline)
Protocol: as §1

[3] = @ 100 μM DMSO

T1 sequence (P01139 122-241): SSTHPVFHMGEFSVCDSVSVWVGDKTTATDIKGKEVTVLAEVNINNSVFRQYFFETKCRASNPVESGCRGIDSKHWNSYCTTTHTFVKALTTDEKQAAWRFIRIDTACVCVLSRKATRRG
T2 sequence (P01139 122-241): as above

Structure (SMILES)	PC12 % of Max (receptor binding in presence of competitor as percentage of binding in absence of competitor) [1]	nnr5 % of Max (receptor binding in presence of competitor as percentage of binding in absence of competitor) [2]	Solubility [3]
O=C(O)CCCN1C(=O)c2cccc3cc([N+](=O)[O-])cc(c23)C1=O [Compound 202, N-(3-carboxypropyl)-3-nitro-1,8-naphthalimide; 2-(3-carboxypropyl)-5-nitrobenzo[d,e]isoquinoline-1,3-dione]	21, 22, 30 = 24 % of Max	16, 0, 0 = 5 % of Max	–
O=C(O)CN1C(=O)c2cccc3cc([N+](=O)[O-])cc(c23)C1=O [Compound 200, N-(1-carboxymethyl)-3-nitro-1,8-naphthalimide; 2-(1-carboxymethyl)-5-nitrobenzo[d,e]isoquinoline-1,3-dione]	92, 87, 74 = 84 % of Max	58, 63, 64 = 62 % of Max	–
O=C(O)CCCCCN1C(=O)c2cccc3cc([N+](=O)[O-])cc(c23)C1=O [Compound 204, N-(5-carboxypentyl)-3-nitro-1,8-naphthalimide; 2-(5-carboxypentyl)-5-nitrobenzo[d,e]isoquinoline-1,3-dione]	41, 41, 36 = 39 % of Max	12, 0, 47 = 20 % of Max	–
O=C(O)CCCCN1C(=O)c2cccc3cc([N+](=O)[O-])cc(c23)C1=O [Compound 203, N-(4-carboxybutyl)-3-nitro-1,8-naphthalimide; 2-(4-carboxybutyl)-5-nitrobenzo[d,e]isoquinoline-1,3-dione]	36, 41, 35 = 37 % of Max	33, 0, 18 = 17 % of Max	–
O=C(O)CCN1C(=O)c2cccc3cc([N+](=O)[O-])cc(c23)C1=O [Compound 201, N-(2-carboxyethyl)-3-nitro-1,8-naphthalimide; 2-(2-carboxyethyl)-5-nitrobenzo[d,e]isoquinoline-1,3-dione]	27, 32, 41 = 33 % of Max	30, 4, 34 = 23 % of Max	–

Continued, values first:

PC12 % of Max (receptor binding in presence of competitor as percentage of binding in absence of competitor) [1]	nnr5 % of Max (receptor binding in presence of competitor as percentage of binding in absence of competitor) [2]	Solubility [3]	Structure (SMILES)
31, 34, 22 = 29 % of Max	36, 35, 39 = 36 % of Max	–	O=C(O)CCCCCN1C(=O)c2cccc3c([N+](=O)[O-])ccc(c23)C1=O [Compound 224, N-(5-carboxypentyl)-4-nitro-1,8-naphthalimide; 2-(5-carboxypentyl)-6-nitrobenzo[d,e]isoquinoline-1,3-dione]
27, 33, 33 = 31 % of Max	40, 41, 47 = 43 % of Max	–	O=C(O)CCCCN1C(=O)c2cccc3c([N+](=O)[O-])ccc(c23)C1=O [Compound 223, N-(4-carboxybutyl)-4-nitro-1,8-naphthalimide; 2-(4-carboxybutyl)-6-nitrobenzo[d,e]isoquinoline-1,3-dione]
29, 32, 31 = 31 % of Max	41, 37, 42 = 40 % of Max	–	O=C(O)CCN1C(=O)c2cccc3c([N+](=O)[O-])ccc(c23)C1=O [Compound 221, N-(2-carboxyethyl)-4-nitro-1,8-naphthalimide; 2-(2-carboxyethyl)-6-nitrobenzo[d,e]isoquinoline-1,3-dione]
37, 43, 49 = 43 % of Max	21, 17, 26 = 21 % of Max	220 NS (NS: Not Soluble @ 100 μM DMSO)	O=C(O)CN1C(=O)c2cccc3c([N+](=O)[O-])ccc(c23)C1=O [Compound 220, N-(1-carboxymethyl)-4-nitro-1,8-naphthalimide; 2-(1-carboxymethyl)-6-nitrobenzo[d,e]isoquinoline-1,3-dione]
–	–	222 NS (NS: Not Soluble @ 100 μM DMSO)	O=C(O)CCCN1C(=O)c2cccc3c([N+](=O)[O-])ccc(c23)C1=O [Compound 222, N-(3-carboxypropyl)-4-nitro-1,8-naphthalimide; 2-(3-carboxypropyl)-6-nitrobenzo[d,e]isoquinoline-1,3-dione]
